Data published in ChEMBL document CHEMBL1140868, “Current perspective of TACE inhibitors: a review” (Bioorg Med Chem, 2009).

Assays:
[1] = target: T1, Disintegrin and metalloproteinase domain-containing protein 17 (Homo sapiens, UniProt P78536); experiment: Inhibition of TACE in human PBMC
[2] = target: T1, Disintegrin and metalloproteinase domain-containing protein 17; experiment: Inhibition of TACE
[3] = Selectivity for TACE over MMP2
[4] = Selectivity for TACE over MMP1
[5] = Selectivity for TACE over MMP9
[6] = target: T1, Disintegrin and metalloproteinase domain-containing protein 17; experiment: Inhibition of TACE by cell free assay
[7] = Inhibition of TNFalpha production in whole blood; type: functional, tissue-based
[8] = Bioavailability in rat; type: ADME, organism-based; settings: in vivo
[9] = tested on: Mus musculus; experiment: Inhibition of TNFalpha production in mouse at 100 mg/kg, po after 1 hr; type: functional
[10] = target: T2, Interstitial collagenase (Homo sapiens, UniProt P03956); experiment: Inhibition of MMP1
T2 sequence (P03956 whole entry): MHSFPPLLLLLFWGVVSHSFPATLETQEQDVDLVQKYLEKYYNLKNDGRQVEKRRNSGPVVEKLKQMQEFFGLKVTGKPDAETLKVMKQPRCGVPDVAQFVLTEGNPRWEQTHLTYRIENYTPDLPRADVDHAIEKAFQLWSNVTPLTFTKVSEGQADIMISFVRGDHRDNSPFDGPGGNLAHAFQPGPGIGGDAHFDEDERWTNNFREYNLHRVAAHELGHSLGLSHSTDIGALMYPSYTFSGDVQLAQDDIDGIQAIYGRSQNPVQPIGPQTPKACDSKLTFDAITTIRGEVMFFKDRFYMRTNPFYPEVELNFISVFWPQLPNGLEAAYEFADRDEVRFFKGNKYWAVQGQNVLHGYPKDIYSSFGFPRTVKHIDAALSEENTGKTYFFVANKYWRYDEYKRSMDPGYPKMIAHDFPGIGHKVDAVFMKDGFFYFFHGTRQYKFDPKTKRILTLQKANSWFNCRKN

[11] = tested on: THP-1; experiment: Inhibition of LPS-induced TNFalpha production in human THP1 cells; type: functional, cell-based
[12] = target: Collagenase 3 (Homo sapiens, UniProt P45452); experiment: Inhibition of MMP13
[13] = tested on: Mus musculus; experiment: Inhibition of TNFalpha production in mouse at 50 mg/kg, po after 1 hr; type: functional
[14] = target: Disintegrin and metalloproteinase domain-containing protein 17 (Sus scrofa, UniProt O77636); experiment: Inhibition of pig TACE
Chain of Disintegrin and metalloproteinase domain-containing protein 17 (Sus scrofa, UniProt O77636) (O77636 whole entry, the tested form may be a part): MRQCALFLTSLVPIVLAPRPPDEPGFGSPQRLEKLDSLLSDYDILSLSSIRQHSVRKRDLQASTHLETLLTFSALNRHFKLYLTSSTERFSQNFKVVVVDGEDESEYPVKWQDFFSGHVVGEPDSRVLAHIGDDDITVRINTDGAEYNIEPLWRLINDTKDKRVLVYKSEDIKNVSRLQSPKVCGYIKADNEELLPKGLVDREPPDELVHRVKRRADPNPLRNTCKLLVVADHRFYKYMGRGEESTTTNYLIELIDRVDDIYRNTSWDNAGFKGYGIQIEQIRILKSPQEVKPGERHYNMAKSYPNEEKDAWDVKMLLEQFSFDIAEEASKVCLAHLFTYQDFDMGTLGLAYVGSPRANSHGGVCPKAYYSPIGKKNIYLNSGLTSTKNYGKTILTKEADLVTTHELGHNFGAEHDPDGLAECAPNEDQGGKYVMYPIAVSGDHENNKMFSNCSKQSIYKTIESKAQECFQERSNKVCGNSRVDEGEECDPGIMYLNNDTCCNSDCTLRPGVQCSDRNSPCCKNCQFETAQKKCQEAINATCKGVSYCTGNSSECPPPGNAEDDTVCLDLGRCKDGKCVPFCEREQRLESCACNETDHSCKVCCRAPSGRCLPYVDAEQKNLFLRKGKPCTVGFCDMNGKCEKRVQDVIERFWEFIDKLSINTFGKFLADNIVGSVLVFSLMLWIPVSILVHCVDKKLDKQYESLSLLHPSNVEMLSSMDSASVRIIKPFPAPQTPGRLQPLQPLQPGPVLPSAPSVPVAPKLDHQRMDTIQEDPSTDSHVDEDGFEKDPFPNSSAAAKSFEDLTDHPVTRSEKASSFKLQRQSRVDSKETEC

[15] = Oral bioavailability in dog; type: ADME, organism-based, Canis lupus familiaris; settings: in vivo
[16] = Half life in human; type: ADME, organism-based; settings: in vivo
[17] = Oral bioavailability in rat; type: ADME, organism-based; settings: in vivo
[18] = tested on: Mus musculus; experiment: Inhibition of LPS-induced TNFalpha production in po dosed mouse; type: functional
[19] = Fraction unbound in human serum; type: ADME, cell-free
[20] = tested on: Blood; experiment: Inhibition of TNFalpha production in human whole blood; type: functional, tissue-based
[21] = Half life in rat LPS model; type: ADME, organism-based; settings: in vivo
[22] = tested on: Rattus norvegicus; experiment: Inhibition of LPS-induced TNFalpha production in po dosed rat plasma; type: functional
[23] = target: 72 kDa type IV collagenase (Homo sapiens, UniProt P08253); experiment: Inhibition of MMP2
Chain of 72 kDa type IV collagenase (P08253 whole entry): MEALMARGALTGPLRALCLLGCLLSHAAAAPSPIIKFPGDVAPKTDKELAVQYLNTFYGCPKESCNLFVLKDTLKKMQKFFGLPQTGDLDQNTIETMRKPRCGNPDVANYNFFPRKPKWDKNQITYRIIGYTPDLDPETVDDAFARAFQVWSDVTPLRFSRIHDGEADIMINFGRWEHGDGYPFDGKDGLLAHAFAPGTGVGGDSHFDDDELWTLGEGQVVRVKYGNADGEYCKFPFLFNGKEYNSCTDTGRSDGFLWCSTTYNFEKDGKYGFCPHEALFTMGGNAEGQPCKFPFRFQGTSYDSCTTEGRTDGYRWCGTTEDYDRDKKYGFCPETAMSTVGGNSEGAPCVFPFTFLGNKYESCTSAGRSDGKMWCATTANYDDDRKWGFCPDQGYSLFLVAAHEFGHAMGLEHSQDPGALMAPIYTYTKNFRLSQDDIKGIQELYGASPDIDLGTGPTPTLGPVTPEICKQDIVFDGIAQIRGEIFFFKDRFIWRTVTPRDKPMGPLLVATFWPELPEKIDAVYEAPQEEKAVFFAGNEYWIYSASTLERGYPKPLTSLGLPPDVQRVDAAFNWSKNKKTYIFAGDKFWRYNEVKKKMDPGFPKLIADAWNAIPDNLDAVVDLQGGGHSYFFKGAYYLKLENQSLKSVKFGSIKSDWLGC

[24] = target: Matrix metalloproteinase-9 (Homo sapiens, UniProt P14780); experiment: Inhibition of MMP9
Chain of Matrix metalloproteinase-9 (P14780 whole entry): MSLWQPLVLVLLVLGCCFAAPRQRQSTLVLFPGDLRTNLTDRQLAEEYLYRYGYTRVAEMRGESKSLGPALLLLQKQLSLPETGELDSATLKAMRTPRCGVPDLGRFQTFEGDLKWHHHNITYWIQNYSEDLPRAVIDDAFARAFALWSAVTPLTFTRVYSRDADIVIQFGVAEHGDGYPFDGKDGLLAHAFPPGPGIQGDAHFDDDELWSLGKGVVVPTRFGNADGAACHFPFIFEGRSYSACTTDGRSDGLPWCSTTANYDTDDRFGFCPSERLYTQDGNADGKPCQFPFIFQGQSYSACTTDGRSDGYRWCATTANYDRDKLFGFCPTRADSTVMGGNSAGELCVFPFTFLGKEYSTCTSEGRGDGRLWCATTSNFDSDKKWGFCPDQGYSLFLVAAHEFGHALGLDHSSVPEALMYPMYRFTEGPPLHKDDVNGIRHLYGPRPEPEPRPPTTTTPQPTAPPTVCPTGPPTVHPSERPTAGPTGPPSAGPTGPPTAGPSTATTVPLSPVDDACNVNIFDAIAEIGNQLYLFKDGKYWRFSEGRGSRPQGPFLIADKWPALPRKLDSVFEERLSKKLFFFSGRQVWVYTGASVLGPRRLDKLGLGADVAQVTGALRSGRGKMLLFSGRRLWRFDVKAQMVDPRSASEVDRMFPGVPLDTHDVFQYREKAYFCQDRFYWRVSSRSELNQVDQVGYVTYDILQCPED

T1 sequence (P78536 whole entry, the tested form may be a part): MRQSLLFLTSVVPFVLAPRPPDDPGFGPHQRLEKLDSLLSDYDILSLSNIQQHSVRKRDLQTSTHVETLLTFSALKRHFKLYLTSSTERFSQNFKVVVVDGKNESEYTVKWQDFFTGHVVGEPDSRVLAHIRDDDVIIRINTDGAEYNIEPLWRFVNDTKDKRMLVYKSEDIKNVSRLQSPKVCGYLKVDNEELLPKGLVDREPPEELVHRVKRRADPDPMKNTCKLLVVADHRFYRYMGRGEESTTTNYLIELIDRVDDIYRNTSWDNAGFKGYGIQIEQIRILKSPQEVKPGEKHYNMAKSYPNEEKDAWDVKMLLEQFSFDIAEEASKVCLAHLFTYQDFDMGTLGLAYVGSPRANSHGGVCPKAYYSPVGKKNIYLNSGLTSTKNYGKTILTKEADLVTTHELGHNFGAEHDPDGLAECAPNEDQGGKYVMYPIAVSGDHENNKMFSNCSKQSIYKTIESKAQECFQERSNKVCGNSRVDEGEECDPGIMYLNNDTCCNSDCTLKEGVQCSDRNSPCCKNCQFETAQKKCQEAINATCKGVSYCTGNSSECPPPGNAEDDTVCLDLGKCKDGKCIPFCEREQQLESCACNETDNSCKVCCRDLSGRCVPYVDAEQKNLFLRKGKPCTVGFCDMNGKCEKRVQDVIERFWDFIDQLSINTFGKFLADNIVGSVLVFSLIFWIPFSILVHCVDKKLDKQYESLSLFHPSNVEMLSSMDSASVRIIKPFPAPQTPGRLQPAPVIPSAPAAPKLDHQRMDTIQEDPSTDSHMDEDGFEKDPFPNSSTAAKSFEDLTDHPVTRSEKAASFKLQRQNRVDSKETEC

SMILES: CNC(=O)[C@@H](NC(=O)[C@H](c1ccc(OC)cc1)[C@H](CO)C(=O)NO)C(C)(C)C
- IC50 [1]: 56 nM

SMILES: C[C@H](C(=O)NO)N1CC[C@@](C)(c2ccc(OCc3cc(C(F)(F)F)cc(C(F)(F)F)c3)cc2)C1=O
- IC50 [2]: 2 nM
- Selectivity ratio [3]: > 1000
- Selectivity ratio [4]: > 1000
- Selectivity ratio [5]: > 1000

SMILES: CNC(=O)[C@@H](NC(=O)[C@H](c1ccc(C)cc1)[C@H](CO)C(=O)NO)C(C)(C)C
- IC50 [1]: 141 nM

SMILES: CCC[C@@H]([C@@H](CC(C)C)C(=O)C[C@@H](CCCN/C(N)=N/[N+](=O)[O-])C(=O)Nc1nccs1)N(O)C=O
- IC50 [6]: 4.3 nM

SMILES: CC#CCOc1ccc(S(=O)(=O)N(C)c2c(C(=O)NO)cnc3c(OC)cccc23)cc1
- Selectivity ratio [4]: 50

SMILES: CC#CCOc1ccc(S(=O)(=O)CC2(C(=O)NO)CCN(S(=O)(=O)C(C)C)CC2)cc1
- Selectivity ratio [3]: 230

SMILES: Cc1cc(COc2ccc(C(=O)N[C@@H]3COCC[C@@H]3C(=O)NO)cc2)c2ccccc2n1
- IC50 [7]: 130 nM
- bioavailability [8]: 58%
- IC50 [2]: < 1 nM
- Selectivity ratio [3]: > 30000
- Selectivity ratio [4]: > 30000

SMILES: Cc1cc(COc2ccc(S(=O)(=O)CC3C(C(=O)NO)CCN3C)cc2)c2ccccc2n1 (stereo unspecified)
- IC50 [7]: 180 nM
- IC50 [2]: 1 nM
- Selectivity ratio [3]: 2000
- Selectivity ratio [4]: 2000
- Selectivity ratio [5]: 2000

SMILES: CC#CCOc1ccc(S(=O)(=O)N(C)c2c(C(=O)NO)cnc3onc(C)c23)cc1
- inhibition in vivo at 100 mg/kg [9]: 95%

SMILES: Cc1cc(COc2ccc(C3(C)C(=O)NC(=O)NC3=O)cc2)c2ccccc2n1
- IC50 [2]: 1 nM

SMILES: CNC(=O)[C@H](Cc1ccc(NC(=N)N)cc1)NC(=O)[C@H](CC(C)C)[C@H](CCCc1ccccc1)C(=O)NO
- IC50 [10]: 6 nM
- IC50 [11]: 130 nM
- IC50 [12]: 0.1 nM

SMILES: CC#CCOc1ccc(S(=O)(=O)N(C)c2c(N3CCN(C)CC3)ccc(Br)c2C(=O)NO)cc1
- inhibition in vivo at 50 mg/kg [13]: 100%
- IC50 [2]: 25 nM
- Selectivity ratio [4]: 500

SMILES: CC(C)C[C@@H](C(=O)NN(CC(C)C)S(C)(=O)=O)[C@H](C/C=C/c1ccccc1)C(=O)NO
- IC50 [2]: 3 nM

SMILES: Cc1cc(COc2ccc(N3C(C(=O)NO)CCCS3(=O)=O)cc2)c2ccccc2n1 (stereo unspecified)
- Selectivity ratio [3]: > 1000
- Selectivity ratio [4]: > 1000
- Selectivity ratio [5]: > 1000

SMILES: CC(C)Cc1ccc([C@]2(C)CCN([C@H](C)C(=O)NO)C2=O)cc1
- IC50 [2]: 1000 nM

SMILES: COc1cc(COc2ccc3c(c2)NCCN(C(CCCCNS(C)(=O)=O)C(=O)NO)S3(=O)=O)cc(OC)c1 (stereo unspecified)
- Ki [14]: 5 nM

SMILES: COc1ccc(S(=O)(=O)N(C)c2c(C)cc(Br)cc2C(=O)NO)cc1
- IC50 [12]: 11 nM

SMILES: C=CCONC(=O)[C@@H]1[C@@H](C)N(C(C)=O)CCN1S(=O)(=O)c1ccc(OCc2ccc(C)cc2)cc1
- IC50 [10]: 1600 nM
- IC50 [2]: 1 nM
- IC50 [12]: 3 nM

SMILES: C[C@H](C(=O)NO)N1CC[C@@](C)(c2ccc(-c3ccccc3)cc2)C1=O
- IC50 [2]: 13000 nM

SMILES: Cc1cc(COc2ccc([C@]3(N)CCN([C@H](CC(C)C)C(=O)NO)C3=O)cc2)c2ccccc2n1
- bioavailability [15]: 54%
- IC50 [7]: 90 nM
- half-life [16]: 3 h
- IC50 [2]: 0.2 nM
- bioavailability [17]: 16%
- ED50 [18]: 6 mg/kg

SMILES: CCOP(=O)(N[C@@H](CC(C)C)C(=O)NO)c1ccc(OC)cc1 (stereo partly specified)
- IC50 [2]: 76 nM

SMILES: Cc1cc(COc2ccc([C@]3(C)CCN([C@H](C)C(=O)NO)C3=O)cc2)c2ccccc2n1
- IC50 [7]: 350 nM
- fraction unbound [19]: 0.036

SMILES: C[C@H](C(=O)NO)N1CC[C@@](C)(c2ccc(OCc3ccccc3)cc2)C1=O
- IC50 [2]: 4 nM

SMILES: Cc1cc(COc2ccc(NC(=O)[C@@H]3[C@@H](C(=O)NO)CCCN3C)cc2)c2ccccc2n1
- IC50 [7]: 20 nM
- IC50 [2]: 6.2 nM

SMILES: O=C(NO)[C@@H]1CC[C@H](O)CN1S(=O)(=O)c1ccc(OCc2ccccc2I)cc1
- IC50 [2]: 110000 nM

SMILES: Cc1cc(COc2ccc(N3CC[C@](C)(CC(=O)NO)C3=O)cc2)c2ccccc2n1
- IC50 [20]: 1570 nM
- IC50 [2]: 1 nM

SMILES: CC1(C)SCCN(S(=O)(=O)c2ccc(OCC#CCO)cc2)[C@H]1C(=O)NO
- IC50 [2]: 440 nM

SMILES: C[C@H](C(=O)NO)N1CC[C@@](C)(c2ccc(Oc3ccccc3)cc2)C1=O
- IC50 [2]: 185 nM

SMILES: CC[C@H](C)[C@H](NC(=O)[C@H](CC(C)C)[C@H](C(C)C)N(O)C=O)C(=O)Nc1ccccn1
- IC50 [6]: 40 nM
- half-life [21]: > 12 h

SMILES: Cc1cc(COc2ccc(C(=O)NC3(C)C(=O)NC(=O)NC3=O)cc2)c2ccccc2n1
- IC50 [2]: 0.026 nM

SMILES: Cc1cc(OCc2ccc(NC(=O)[C@H]3CCCC[C@@H]3C(=O)NO)cc2)c2ccccc2n1
- IC50 [7]: > 50000 nM
- IC50 [2]: 8 nM

SMILES: Cc1cc(COc2ccc(N3CCC([C@H](NC(=O)OC(C)(C)C)C(=O)NO)C3=O)cc2)c2ccccc2n1 (stereo partly specified)
- Selectivity ratio [3]: 300
- Selectivity ratio [4]: 700
- Selectivity ratio [5]: 300

SMILES: CC#CCOc1ccc([S+]([O-])C(CCCCCC)C(=O)NO)cc1 (stereo unspecified)
- IC50 [2]: 4 nM

SMILES: Cc1cc(COc2ccc(C(=O)NCCC(=O)NO)cc2)c2ccccc2n1
- IC50 [14]: 1 nM

SMILES: CC1(C)SCCN(S(=O)(=O)c2ccc(Oc3ccncc3)cc2)[C@H]1C(=O)NO [PRINOMASTAT]
- IC50 [2]: 22 nM

SMILES: CCC(=O)[C@@H](NC(=O)[C@H](c1ccc(OC)cc1)[C@H](CO)C(=O)NO)C(C)(C)C
- ED50 [22]: 1 mg/kg

SMILES: C/C=C/C=C/C=C1/C=C(CCC(=O)NO)C(=O)OC1
- IC50 [2]: 28 nM
- IC50 [23]: 6 nM
- IC50 [24]: 23 nM

SMILES: CC#CCOc1ccc(S(=O)(=O)N2Cc3ccc(CO)cc3N(C(C)=O)CC2C(=O)NO)cc1 (stereo unspecified)
- Selectivity ratio [4]: > 40
